From patent US11732048B2, “Anti-axl antagonistic antibodies” (BERGEN TEKNOLOGIOVERFØRING AS, priority 2016, dated 2023) come the findings set out here.

This assay has as its system MDA-MB-231 cells. The assay is described as follows: Tumour cell killing using antibody-Saporin conjugates (XTT/PMS viability). The class given is cell-based, human. On the procedure:
For generation of immunotoxin, the chimeric MAb was non-covalently coupled to a plant toxin Saporin using FabFc-ZAP human conjugate (4.5 nM final concentration) (Advanced Targeting Systems, Cat. no. IT-65). The effect of chAb-Saporin internalization on tumour cell viability was tested using Axl-positive tumour cell line MDA-MB-231 (human triple negative breast carcinoma). Eight hundred cells were seeded per well in 96-well plates in DMEM/F-12 media supplied with 10% FBS, L-glutamine (4 mM), streptomycin (5 μg/ml) and penicillin (5 U/ml) and allowed to attach for 16 hours. The cells were incubated with different dilutions of immunotoxin chAb-Saporin for 72 hrs. The viability of the cells was determined by performing an XTT/PMS assay using a CLARIOstar® microplate reader (BMG LABTECH)
Unconjugated Saporin and an isotype control antibody (human IgG1) coupled to Saporin (control SAP) were used as negative controls.
Tumour cell killing using antibody-Saporin conjugates performed as described in Example 20. A comparison of two variants of humanised 10G5 and YW327.6S2 was performed.

Like-named read-outs stand apart in the source and are kept apart here.

Regarding Saporin, the EC50 reads like this: (Table 4, antibody coupled to Saporin via FabFc-ZAP, MDA-MB-231, 72 hrs, read-out: EC50 (effective concentration leading to 50% cell killing)) 99.1 nM; (Table 5, antibody-Saporin conjugates as in Example 20, MDA-MB-231, read-out: EC50 (cell killing)) 247 nM.
